Common to all, as to assay type: cell-based
In assay [1] the test system is H295 (adrenal cortical carcinoma) cells. Description: MTT assay, sensitization to vincristine or docetaxel in H295 cells. As to conditions: vincristine or docetaxel plus sensitizer at 10, 1 or 0.1 micromolar, versus chemotherapy alone, FIGS. 10A-10H. Here is the method: (§1) Cancer cells grown in vitro are treated with chemotherapy drugs alone or simultaneously with a hedgehog pathway modulator, including itraconazole. The difference in cell death between cells treated with chemotherapy drugs alone or in simultaneous treatment with the hedgehog pathway modulators determines the degree of synergistic killing effect of the combination therapy.
(§2) Cell culture: The H295 cell line was grown in DMEM (Dulbecco's Modified Eagles Medium), supplemented with insulin, transferring, and selenium, 10% Fetal bovine serum, and gentamicin. The Kelly cell line was grown in DMEM, supplemented with 10% Fetal bovine serum, and gentamicin. Cell-based experiments were conducted in a 37 degree incubator supplemented with 5% carbon dioxide.
(§3) In vitro Pharmacology: H295 cells were plated in a 96-well dish at a density of 10000 cells per well and Kelly cells were plated at a density of 2000 cells per well. After 16 hours, cells were treated with 2-fold dilutions of vincristine (VCR) or docetaxel (DTX).
(§4) MTT Assay: Drug containing media from all of the dishes were discarded and MTT solution was added at a concentration of 5 micrograms per ml. The dishes were returned to the incubator for 4 hours.

The subject of assay [2] is Kelly (neuroblastoma) cells. Description: MTT assay, sensitization to vincristine or docetaxel in Kelly cells. As to conditions: vincristine or docetaxel plus sensitizer at 10, 1 or 0.1 micromolar, versus chemotherapy alone, FIGS. 10A-10H. Here is the method:
as §1, §2, §3, §4

In assay [3] the test system is HeLa (cervical cancer) cells. Put plainly: MTT assay, sensitization to vincristine or docetaxel in HeLa cells. The following applies: HeLa cells (pre-exposed to chemotherapy, second-line model); sensitizer 10, 1 or 0.1 micromolar; FIGS. 10I-10L.

As for `CC1=C2C[C@H]3[C@@H](CC=C4C[C@@H](O)CC[C@@]43C)[C@@H]2CC[C@]12O[C@@H]1C[C@H](C)CN[C@H]1[C@H]2C` [cyclopamine], the “concentration of chemotherapy necessary to stop proliferation as well as kill half of the amount of cells (IC50)” value in assay [1] and in assay [2] was “remains less than concentration of chemotherapy alone” throughout. In addition, the “sensitization to vincristine and docetaxel” value in assay [3] is listed as “did not respond”.
